Where a SMILES comes first, the peptide text is derived from it. The star is where a group is joined. Cbz = O=C(OCc1ccccc1)*
Test system: HIF-1α
Test: Western blot of HIF-1α expression in HCT116 cells
Assay type: cell-based
Conditions: for HIF-1α expression / HIF-1α expression increased by Smurf2 knockdown, effect of treatment: HCT116 cells; for HIF-1α expression: normoxia; for HIF-1α expression increased by Smurf2 knockdown, effect of treatment: Smurf2 siRNA 48 hours, normoxia 6 hours, Ro3306 5 μM, palbociclib 10 μM, abemaciclib 1 μM
Experimental: HCT116 cells were obtained from American Type Culture Collection (ATCC) and were maintained according to ATCC recommendation in McCoy's 5A medium (Hyclone) with 10% fetal bovine serum (FBS) (Hyclone) and 1% penicillin/streptomycin (P/S) (Corning). Cells were regularly tested for mycoplasma and authenticated. Cells were maintained at 37° C. in 5% CO2. Hypoxia treatment was performed in a hypoxia chamber (In vivo2, Ruskinn) which maintains 0.5% O2 and 5% CO2 at 37° C.
Plasmid expression was performed by 24 hours transfection using Opti-MEM (Thermo Fisher Scientific) and Lipofectamine 2000 (Life Technologies). Knockdown experiments were performed by siRNA transfection for 48 hours with Opti-MEM and Lipofectamine RNAiMAX (Life Technologies), according to the manufacturer's protocol.
Treated cells were lysed in RIPA buffer (Sigma). Protein concentrations were determined using a BCA Protein Assay Kit (Life Technologies). Equal amounts of total protein were boiled with NuPAGE™ LDS sample buffer (Thermo Fisher Scientific) and reducing agent (Invitrogen) or 2-mercaptoethanol. Samples were analyzed with SDS-PAGE. Proteins were transferred to an Immobilon-P PVDF membrane (EMD Millipore). Primary and secondary antibodies were added in order. Signals were detected after addition of the ECL western blotting substrate (Thermo Fisher Scientific).

## CC(C)C[C@@H](C=O)NC(=O)[C@H](CC(C)C)NC(=O)[C@H](CC(C)C)NC(=O)OCc1ccccc1 [MG132] (Cbz-Leu-Leu-Leu-aldehyde)
HCT116 cells transfected with myc-Smurf2 plasmid, 6 hours, dose-dependent
  HIF-1α expression upon Smurf2 overexpression: partially rescued
2 μM, 6 hours
  HIF-1α expression: increased
5 μM, 6 hours
  HIF-1α expression: more robustly

## O=C1NC(=NCc2cccs2)S/C1=C\c1ccc2ncccc2c1 [Ro-3306]
  HIF-1α expression increased by Smurf2 knockdown, effect of treatment: not reversed
Listed as Ro3306
  HIF-1α expression increased by Smurf2 knockdown, effect of treatment: further increased

— patent publication US20230183356A1, “HIF-1a MODULATORS AND USES THEREOF” (Brown University, priority 2021, published 2023)
